Measured values from paper PMC4610730 (Journal of medicinal chemistry, 2015).

Assays:
[1] = molecular target: APOBEC3G (A3G) (Homo sapiens, UniProt Q9HC16); experiment: Fluorescence-based ssDNA C-to-U DNA deaminase assay, A3G; format: biochemical; conditions: for A3G inhibitory activity: substructures of the decomposition products, data not shown
[2] = LC-MS analysis of aged DMSO stocks; format: physicochemical; conditions: DMSO stock, LC-MS on day 38; for Decomposition product observed: carboxylic acid (analogous to 6) / Decomposition product observed: enone (analogous to 8) / Decomposition product observed: lactam (analogous to 5): Table 1; for Decomposition product observed: bis-enone (equivalent to 8) / Decomposition product observed: carboxylic acid (equivalent to 6) / Decomposition product observed: lactam (equivalent to 5): Table 2
[3] = Aging of DMSO stocks of 1 under varied conditions; format: physicochemical
[4] = Aging of 1 under photochemical conditions; format: physicochemical; conditions: 10 mM DMSO, visible light 300 W, N2 atmosphere (balloon, 1 atm), 9 h, no sensitizer
[5] = molecular target: APOBEC3A (A3A) (Homo sapiens, UniProt P31941); experiment: Fluorescence-based ssDNA C-to-U DNA deaminase assay, A3A; format: biochemical
APOBEC3A (A3A), sequence (P31941 whole entry): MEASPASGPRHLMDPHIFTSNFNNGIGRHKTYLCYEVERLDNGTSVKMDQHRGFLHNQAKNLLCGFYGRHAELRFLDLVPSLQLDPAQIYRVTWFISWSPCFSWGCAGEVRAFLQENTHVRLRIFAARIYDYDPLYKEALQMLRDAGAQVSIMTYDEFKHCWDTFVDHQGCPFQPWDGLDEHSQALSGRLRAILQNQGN

[6] = Storage stability of isolated decomposition products; format: physicochemical; conditions: significant periods of time
[7] = freshly synthesized and solubilized, day 0, dose response up to 200 μM

APOBEC3G (A3G), sequence (Q9HC16 whole entry): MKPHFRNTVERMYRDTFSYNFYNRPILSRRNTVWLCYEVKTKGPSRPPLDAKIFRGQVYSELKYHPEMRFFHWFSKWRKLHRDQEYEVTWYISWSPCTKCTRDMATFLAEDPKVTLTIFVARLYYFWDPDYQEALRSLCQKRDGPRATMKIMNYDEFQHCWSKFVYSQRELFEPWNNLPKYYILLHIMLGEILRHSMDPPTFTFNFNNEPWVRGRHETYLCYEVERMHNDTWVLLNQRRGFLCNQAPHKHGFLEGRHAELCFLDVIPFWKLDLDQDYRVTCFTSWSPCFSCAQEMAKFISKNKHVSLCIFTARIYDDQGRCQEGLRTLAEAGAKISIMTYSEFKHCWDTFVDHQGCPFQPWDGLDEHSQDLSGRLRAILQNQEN

Compound	Decomposition product observed: carboxylic acid (analogous to 6) [2]	Decomposition product observed: enone (analogous to 8) [2]	Decomposition product observed: lactam (analogous to 5) [2]	Decomposition product observed: bis-enone (equivalent to 8) [2]	Decomposition product observed: carboxylic acid (equivalent to 6) [2]	Decomposition product observed: lactam (equivalent to 5) [2]	other results
O=C(O)c1cc(O)nc2ccccc12 [2-Hydroxyquinonline-4-carboxylic acid]							A3G inhibitory activity [1]: inactive
Cc1ccc(-c2cc(C(=O)Nc3nnc(-c4ccncc4)s3)c3ccccc3n2)o1 [compound 1, 2-(5-Methylfuran-2-yl)-N-(5-(pyridin-4-yl)-1,3,4-thiadiazol-2-yl)quinoline-4-carboxamide]	+ 378.1 (378.1)	+ 430.1 (430.1)	+ 350.1 (350.1)	+ 430.1 (430.1)	+ 378.1 (378.1)	+ 350.1 (350.1)	decomposition of DMSO stock ([3]; 10 mM DMSO stock aged in the dark): no decomposition; decomposition of DMSO stock ([3]; 10 mM DMSO stock aged in the presence of NaN3): no decomposition; decomposition of DMSO stock ([3]; 10 mM DMSO stock aged under inert conditions (N2)): drastically reduced decomposition; rate of decomposition versus storage temperature ([3]; DMSO stock stored at -20 °C vs. rt vs. 37 °C, data not shown): same rate regardless of the temperature; decomposition under irradiation [4]: virtually no decomposition; A3G inhibition [1, 7]: no inhibition; inhibitory activity against A3A ([5]; aged DMSO stock of synthesized compound): never recovered; A3A inhibition [5, 7]: no inhibition
Nc1nnc(-c2ccncc2)s1 [compound 4, 5-(pyridin-4-yl)-1,3,4-thiadiazol-2-amine]							A3G inhibitory activity [1]: inactive
CC(=O)/C=C\C(=O)c1cc(C(=O)Nc2nnc(-c3ccncc3)s2)c2ccccc2n1 [compound 8, (Z)-2-(4-oxopent-2-enoyl)-N-(5-(pyridin-4-yl)-1,3,4-thiadiazol-2-yl)quinoline-4-carboxamide]							stability for storage in organic solvents [6]: not stable
Cc1ccc(-c2cc(C(=O)O)c3ccccc3n2)o1 [compound 12, 2-(5-Methylfuran-2-yl)quinoline-4-carboxylic acid]	+ 218.1 (218.1)	+ 270.1 (270.1)	+ 190.1 (190.1)				
O=C(Nc1nnc(-c2ccncc2)s1)c1cc(-c2ccco2)nc2ccccc12 [compound 13]	+ 378.2 (378.1)	-	+ 350.2 (350.1)				
O=C(O)c1cc(-c2ccco2)nc2ccccc12 [compound 14]	-	-	+ 190.2 (190.1)				
Cc1ccc(-c2cc(C(=O)Nc3nnc(-c4ccncc4)s3)ccn2)o1 [compound 15]	+ 328.2 (328.0)	+ 380.2 (380.1)	-				
Cc1ccc(-c2cc(C(=O)O)ccn2)o1 [compound 16]	-	+ 220.1 (220.1)	-				
O=C(Nc1nnc(-c2ccncc2)s1)c1ccnc(-c2ccco2)c1 [compound 17]	-	-	-				
O=C(O)c1ccnc(-c2ccco2)c1 [compound 18]	-	-	-				
Cc1ccc(-c2cc(C(=O)Nc3nnc(-c4ccncc4)s3)c3ccccc3c2)o1 [compound 19]	+ 377.2 (377.1)	+ 429.2 (429.1)	-				
Cc1ccc(-c2cc(C(=O)O)c3ccccc3c2)o1 [compound 20]	-	+ 269.2 (269.1)	-				
O=C(Nc1nnc(-c2ccncc2)s1)c1cc(-c2ccco2)cc2ccccc12 [compound 21]	+ 377.2 (377.1)	+ 415.1 (415.1)	-				
O=C(O)c1cc(-c2ccco2)cc2ccccc12 [compound 22]	-	+ 254.1 (254.1)	-				
Cc1ccc(-c2ccc3ccccc3n2)o1 [compound 23]	-	+ 226.2 (226.2)	-				
c1coc(-c2ccc3ccccc3n2)c1 [compound 24]	-	-	-				
Cc1ccc(-c2cc(C(=O)NC(C)C3CCCO3)c3ccccc3n2)o1 (stereo not drawn) [compound 25]				+ 367.2 (367.2)	+ 315.1 (315.1)	+ 287.1 (287.1)	
Cc1cccc(NC(=O)c2cc(-c3ccc(C)o3)nc3ccccc23)n1 [compound 26]				+ 360.2 (360.1)	+ 308.1 (308.1)	+ 280.1 (280.1)	
Cc1ccc(-c2cc(C(=O)NC3CCCCC3)c3ccccc3n2)o1 [compound 27]				+ 351.2 (351.2)	+ 299.1 (299.1)	+ 271.1 (271.1)	
COc1ccc(CCNC(=O)c2cc(-c3ccc(C)o3)nc3ccccc23)cc1 [compound 28]				+ 403.2 (403.2)	+ 351.2 (351.1)	+ 323.1 (323.1)	
Cc1ccc(-c2cc(C(=O)NCc3ccc4c(c3)OCO4)c3ccccc3n2)o1 [compound 29]				+ 403.1 (403.1)	+ 351.2 (351.1)	+ 323.1 (323.1)	
O=C(NNC(=O)c1cc(-c2ccco2)nc2ccccc12)NC1CCCCC1 [compound 30]				-	+ 357.1 (357.1)	+ 329.1 (329.1)	
Cc1ccc(-c2cc(C(=O)N3CCN(S(C)(=O)=O)CC3)c3ccccc3n2)o1 [compound 31]				+ 416.1 (416.1)	+ 364.1 (364.1)	+ 336.1 (336.1)	
COC(=O)c1cc(NC(=O)c2cc(-c3ccc(C)o3)nc3ccccc23)cc(C(=O)OC)c1 [compound 32]				+ 461.1 (461.1)	+ 409.1 (409.1)	+ 381.1 (381.1)	
O=C(O)c1cc(C(=O)O)c2ccccc2n1 [quinoline-2,4-carboxylic acid]							A3G inhibitory activity [1]: inactive
